Key:
[1] = biological target: Casein Kinase 2 A2 kinase (Homo sapiens, UniProt P19784); test: CK2A2 kinase assay (33P, TCA precipitation); assay type: biochemical
Description: (§1) Incubation mixtures employed for the Casein Kinase 2 A2 kinase assay contain Casein Kinase 2 A2 kinase, a synthetic peptide substrate, ATP, ATP-γ^33P and a Hepes buffer containing Mg^++, NaCl, DTT, and Brij-35. Reactions were incubated for 60 minutes at 30° C. and stopped by the addition of trichloroacetic acid (TCA) to a final concentration 8%. TCA precipitates were collected onto GF/C unifilter plates using a Filtermate universal harvester and the filters are quantitated using a TopCount 96/384-well liquid scintillation counter. Dose response curves were generated to determine the concentration required to inhibit 50% of kinase activity (IC^50). Compounds were dissolved at 10 mM in dimethyl sulfoxide (DMSO) and evaluated at ten concentrations, each in duplicate. The final concentration of DMSO in the assay is 1.7%. IC50 values were derived by non-linear regression.

[2] = biological target: Casein Kinase 2 A1 kinase (Homo sapiens, UniProt P68400); test: CK2A1 kinase assay (33P, TCA precipitation); assay type: biochemical
Sequence of Casein Kinase 2 A1 kinase (P68400 whole entry): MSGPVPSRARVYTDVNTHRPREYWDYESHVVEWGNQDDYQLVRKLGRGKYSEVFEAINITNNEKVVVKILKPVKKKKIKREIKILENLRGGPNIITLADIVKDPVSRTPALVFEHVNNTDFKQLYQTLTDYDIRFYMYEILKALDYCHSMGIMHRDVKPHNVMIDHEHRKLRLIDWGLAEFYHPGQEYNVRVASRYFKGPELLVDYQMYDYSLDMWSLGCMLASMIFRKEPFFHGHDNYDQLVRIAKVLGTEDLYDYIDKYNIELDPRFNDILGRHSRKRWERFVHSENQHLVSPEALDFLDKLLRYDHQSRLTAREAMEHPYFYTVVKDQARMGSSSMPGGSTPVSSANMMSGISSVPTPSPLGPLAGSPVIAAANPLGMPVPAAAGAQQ
Description: as §1, with “2 A1” for “2 A2”, “contain Casecin” for “contain Casein”, “ATP, ATP-γ-^33 P” for “ATP, ATP-γ^33P”, “containing Mg^2+,” for “containing Mg^++,”, “activity (IC50).” for “activity (IC^50).”

Sequence of Casein Kinase 2 A2 kinase (P19784 whole entry): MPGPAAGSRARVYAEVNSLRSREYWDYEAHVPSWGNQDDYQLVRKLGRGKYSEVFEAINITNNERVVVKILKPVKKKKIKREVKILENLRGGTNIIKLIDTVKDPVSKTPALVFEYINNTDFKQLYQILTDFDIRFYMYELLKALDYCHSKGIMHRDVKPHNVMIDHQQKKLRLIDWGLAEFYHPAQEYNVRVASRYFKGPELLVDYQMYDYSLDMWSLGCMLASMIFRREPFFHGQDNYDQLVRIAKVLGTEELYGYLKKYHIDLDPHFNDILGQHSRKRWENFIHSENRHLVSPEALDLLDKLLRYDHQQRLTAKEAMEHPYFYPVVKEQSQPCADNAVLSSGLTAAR

Structure (SMILES)	IC50 [1]	IC50 [2]
c1ccc(C2CCN(c3nc(Nc4cc(C5CC5)n[nH]4)c4cccn4n3)C2)cc1 (centres unmarked) [Example 184, N-(3-cyclopropyl-1H-pyrazol-5-yl)-2-(3-phenylpyrrolidin-1-yl)pyrrolo[1,2-f][1,2,4]triazin-4-amine]	14 nM	177 nM
c1ccc([C@H]2C[C@@H]2c2cc(Nc3nc(N4CCC(c5cccnc5)C4)nn4cccc34)[nH]n2)cc1 (stereo partly drawn) [Example 197, N-(3-((1S,2S)-2-phenylcyclopropyl)-1H-pyrazol-5-yl)-2-(3-(pyridin-3-yl)pyrrolidin-1-yl)pyrrolo[1,2-f][1,2,4]triazin-4-amine]	1020 nM	11300 nM
Cc1cc(Nc2nc(N3CCC(CC(=O)O)C3)nn3cccc23)[nH]n1 (centres unmarked) [Example 199, 2-(1-(4-(3-methyl-1H-pyrazol-5-ylamino)pyrrolo[1,2-f][1,2,4]triazin-2-yl)pyrrolidin-3-yl)acetic acid]	379 nM	2350 nM
Cc1cc(Nc2nc(N3Cc4ccccc4C3)nn3cccc23)[nH]n1 [Example 201, 2-(isoindolin-2-yl)-N-(3-methyl-1,2-f][1,2,4]triazin-4-amine]	25 nM	159 nM
Cc1cc(Nc2nc(N3CCCC3c3cccnc3)nn3cccc23)[nH]n1 (centres unmarked) [Example 209, N-(3-methyl-1H-pyrazol-5-yl)-2-(2-(pyridin-3-yl)pyrrolidin-1-yl)pyrrolo[1,2-f][1,2,4]triazin-4-amine]	1100 nM	6070 nM

The remaining lines, values ahead:

IC50 [1]	IC50 [2]	Structure (SMILES)
39 nM	294 nM	Cc1cc(Nc2nc(N3CCC(c4ccccc4)C3)nn3cccc23)[nH]n1 (centres unmarked) [Example 186, N-(5-methyl-1H-pyrazol-3-yl)-2-(3-phenylpyrrolidin-1-yl)pyrrolo[1,2-f][1,2,4]triazin-4-amine]
56 nM	243 nM	Cc1cc(Nc2nc(N3CCC(c4ccncc4)CC3)nn3cccc23)[nH]n1 [Example 203, N-(3-methyl-1H-pyrazol-5-yl)-2-(4-(pyridin-4-yl)piperidin-1-yl)pyrrolo[1,2-f][1,2,4]triazin-4-amine]
228 nM	1860 nM	Cc1cc(Nc2nc(N3CCCC(c4ccccc4)C3)nn3cccc23)[nH]n1 (centres unmarked) [Example 204, N-(3-methyl-1H-pyrazol-5-yl)-2-(3-phenylpiperidin-1-yl)pyrrolo[1,2-f][1,2,4]triazin-4-amine]
99 nM	1380 nM	COc1ccc(C2CCN(c3nc(Nc4cc(C)n[nH]4)c4cccn4n3)C2)cn1 (centres unmarked) [Example 212, (3-(6-Methoxypyridin-3-yl)pyrrolidin-1-yl)-N-(3-methyl-1H-pyrazol-5-yl)pyrrolo[1,2-f][1,2,4]triazin-4-amine]
43 nM	349 nM	COc1ncccc1C1CCN(c2nc(Nc3cc(C)n[nH]3)c3cccn3n2)C1 (centres unmarked) [Example 213, 2-(3-(2-methoxypyridin-3-yl)pyrrolidin-1-yl)-N-(3-methyl-1H-pyrazol-5-yl)pyrrolo[1,2-f][1,2,4]triazin-4-amine]

From patent US7531539B2, “Pyrrolotriazine kinase inhibitors” (Bristol-Myers Squibb Company, priority 2006, dated 2009)
